Data from US10487068B2, “Pyridazine derivatives as RORc modulators” (Genentech, Inc., priority 2015, dated 2019).

Target: T1, RORc ligand binding domain (Homo sapiens, UniProt P51449)
T1 sequence (P51449 269-508 limits assumed): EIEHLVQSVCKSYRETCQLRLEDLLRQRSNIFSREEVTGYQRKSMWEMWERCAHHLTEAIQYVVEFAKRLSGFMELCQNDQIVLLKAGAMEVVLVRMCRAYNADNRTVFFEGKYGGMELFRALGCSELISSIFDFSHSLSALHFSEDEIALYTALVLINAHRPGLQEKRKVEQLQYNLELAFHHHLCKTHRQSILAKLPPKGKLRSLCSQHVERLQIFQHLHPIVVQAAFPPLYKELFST
Experiment: In Vitro RORc Ligand Binding Assay
Settings: RORc IC50, radioligand 25-[3H]hydroxycholesterol 6 nM; 0.6 ug/mL RORc receptor; 3 h at 25° C.

Row | Compound | IC50 [nM]
1 | Cc1nnc(-c2nccc([C@@]34CC[C@@H](c5cc(-c6c(F)cccc6F)nnc53)C4(C)C)n2)o1 [Example 138] | 41.9
2 | CC1(C)[C@H]2CC[C@]1(c1cncc(C(=O)NCc3nnc[nH]3)n1)c1nnc(-c3c(F)cccc3F)cc12 [Example 139, N-((4H-1,2,4-triazol-3-yl)methyl)-6-((5R,8S)-3-(2,6-difluorophenyl)-9,9-dimethyl-5,6,7,8-tetrahydro-5,8-methanocinnolin-8-yl)pyrazine-2-carboxamide] | 65.5
3 | CC1(C)[C@H]2CC[C@]1(c1cncc(C(=O)NC3(CO)CC3)n1)c1nnc(-c3c(F)cccc3F)cc12 [Example 140, 6-((5R,8S)-3-(2,6-difluorophenyl)-9,9-dimethyl-5,6,7,8-tetrahydro-5,8-methanocinnolin-8-yl)-N-(1-(hydroxymethyl)cyclopropyl)pyrazine-2-carboxamide] | 44.4
4 | CC1(C)[C@H]2CC[C@]1(c1cncc(C(=O)NCc3n[nH]c(=O)[nH]3)n1)c1nnc(-c3c(F)cccc3F)cc12 [Example 141, 6-((5R,8S)-3-(2,6-difluorophenyl)-9,9-dimethyl-5,6,7,8-tetrahydro-5,8-methanocinnolin-8-yl)-N-((5-oxo-4,5-dihydro-1H-1,2,4-triazol-3-yl)methyl)pyrazine-2-carboxamide] | 113
5 | CC1(C)[C@H]2CC[C@]1(c1cncc(-c3ncnn3CCO)n1)c1nnc(-c3c(F)cccc3F)cc12 [Example 145, 2-(5-(6-((5R,8S)-3-(2,6-difluorophenyl)-9,9-dimethyl-5,6,7,8-tetrahydro-5,8-methanocinnolin-8-yl)pyrazin-2-yl)-1H-1,2,4-triazol-1-yl)ethanol] | 43.5
6 | CC1(C)[C@H]2CC[C@]1(c1cncc(C(=O)NC3(CO)COC3)n1)c1nnc(-c3c(F)cccc3F)cc12 [Example 147, 6-((5R,8S)-3-(2,6-difluorophenyl)-9,9-dimethyl-5,6,7,8-tetrahydro-5,8-methanocinnolin-8-yl)-N-(3-(hydroxymethyl)oxetan-3-yl)pyrazine-2-carboxamide] | 50.6

Stronger by IC50, values ahead:

Row | IC50 [nM] | Compound
7 | 23.3 | CC1(C)[C@H]2CC[C@]1(c1cncc(-c3nc(CO)co3)n1)c1nnc(-c3c(F)cccc3F)cc12 [Example 135, (2-(6-((5R,8S)-3-(2,6-difluorophenyl)-9,9-dimethyl-5,6,7,8-tetrahydro-5,8-methanocinnolin-8-yl)pyrazin-2-yl)oxazol-4-yl)methanol]
8 | 37.1 | CC(C)(O)CNC(=O)c1nccc([C@@]23CC[C@@H](c4cc(-c5c(F)cccc5F)nnc42)C3(C)C)n1 [Example 136]
9 | 14.6 | CC1(C)[C@H]2CC[C@]1(c1cccc(S(=O)(=O)N3CCOCC3)n1)c1nnc(-c3c(F)cccc3F)cc12 [Example 137, 4-((6-((5R,8S)-3-(2,6-difluorophenyl)-9,9-dimethyl-5,6,7,8-tetrahydro-5,8-methanocinnolin-8-yl)pyridin-2-yl)sulfonyl)morpholine]
10 | 17.2 | CC1(C)[C@H]2CC[C@]1(c1cncc(-c3ocnc3CO)n1)c1nnc(-c3c(F)cccc3F)cc12 [Example 142, (5-(6-((5R,8S)-3-(2,6-difluorophenyl)-9,9-dimethyl-5,6,7,8-tetrahydro-5,8-methanocinnolin-8-yl)pyrazin-2-yl)oxazol-4-yl)methanol]
11 | 5.9 | CNS(=O)(=O)c1cccc([C@@]23CC[C@@H](c4cc(-c5c(F)cccc5F)nnc42)C3(C)C)n1 [Example 143, 6-((5R,8S)-3-(2,6-difluorophenyl)-9,9-dimethyl-5,6,7,8-tetrahydro-5,8-methanocinnolin-8-yl)-N-methylpyridine-2-sulfonamide]
12 | 11.6 | CC1(C)[C@H]2CC[C@]1(c1cccc(-c3nnc(CO)o3)n1)c1nnc(-c3c(F)cccc3F)cc12 [Example 144, (5-(6-((5R,8S)-3-(2,6-difluorophenyl)-9,9-dimethyl-5,6,7,8-tetrahydro-5,8-methanocinnolin-8-yl)pyridin-2-yl)-1,3,4-oxadiazol-2-yl)methanol]
13 | 31.9 | CC1(C)[C@H]2CC[C@]1(c1cncc(-c3nnn[nH]3)n1)c1nnc(-c3c(F)cccc3F)cc12 [Example 146]
